# Measurements taken from publication PMC7587356, “High-Throughput Screening for Inhibitors of the SARS-CoV-2 Protease Using a FRET-Biosensor” (Molecules, 2020).
# Structures can show the parent of a compound that is named as a salt. Where two headings read alike, the source gives them in different places.
# Molecular target: SARS-CoV-2 3CLpro (Severe acute respiratory syndrome coronavirus 2, UniProt P0DTD1)
# Assay: biochemical
# Assay type: biochemical
# Set-up: Replicate_1 / Replicate_2 / mean / mean (LOPAC_screen_w_protease): unit not given here
# Details: for inhibition at 5 µM: 4 h; for mean (LOPAC screen with protease) / Replicate_1 (LOPAC screen with protease) / Replicate_2 (LOPAC screen with protease): primary screen at 5 µM
# [1] = LOPAC1280 primary screen with protease, 5 µM compound, replicate 1, read-out: Replicate_1 (LOPAC_screen_w_protease)
# [2] = LOPAC1280 primary screen with protease, 5 µM compound, replicate 2, read-out: Replicate_2 (LOPAC_screen_w_protease)
# [3] = LOPAC1280 primary screen with protease, 5 µM compound, mean of the two replicates
# [4] = sheet LOPAC_screen_w_protease, primary screen with protease, compound at 5 µM, mean of two replicates
# [5] = sheet LOPAC_screen_w_protease, primary screen with protease, compound at 5 µM, replicate 2
# [6] = sheet LOPAC_screen_w_protease, LOPAC1280 primary screen with protease, 5 µM compound, mean of the two replicates, read-out: mean
# [7] = sheet LOPAC_screen_w_protease, LOPAC1280 primary screen with protease, 5 µM compound, replicate 1, read-out: Replicate_1
# [8] = sheet LOPAC_screen_w_protease, LOPAC1280 primary screen with protease, 5 µM compound, replicate 2, read-out: Replicate_2
# [9] = sheet LOPAC_screen_w_protease, primary screen of LOPAC1280 at 5 µM with protease, mean of the two replicates, read-out: mean
# [10] = sheet LOPAC_screen_w_protease, primary screen of LOPAC1280 at 5 µM with protease, replicate 1, read-out: Replicate_1
# [11] = sheet LOPAC_screen_w_protease, primary screen of LOPAC1280 at 5 µM with protease, replicate 2, read-out: Replicate_2
# [12] = sheet LOPAC_screen_w_protease, primary screen with protease, mean of two replicates
# [13] = sheet LOPAC_screen_w_protease, primary screen with protease, replicate 1
# [14] = sheet LOPAC_screen_w_protease, primary screen with protease, replicate 2
# [15] = sheet LOPAC_screen_w_protease, mean of two replicates
# [16] = sheet LOPAC_screen_w_protease, replicate 1
# [17] = sheet LOPAC_screen_w_protease, replicate 2
# [18] = sheet LOPAC_screen_w_protease, LOPAC1280 primary screen at 5 µM, with protease, replicate 1
# [19] = sheet LOPAC_screen_w_protease, LOPAC1280 primary screen at 5 µM, with protease, replicate 2
# [20] = LOPAC1280 primary screen with protease, 5 µM compound, mean of two replicates
# [21] = sheet LOPAC_screen_w_protease, primary screen with protease, 5 µM, replicate 1, read-out: Replicate_1
# [22] = sheet LOPAC_screen_w_protease, primary screen with protease, 5 µM, replicate 2, read-out: Replicate_2
compound,measurement,setting,value
CN(C)CCOC(c1ccccc1)c1ccccc1 [Diphenhydramine hydrochloride],inhibition at 5 µM,[1],2.14%
same,inhibition at 5 µM,[2],1.54%
same,mean (LOPAC_screen_w_protease),[3],1.841
N.N.O=C([O-])C1(C(=O)[O-])CCC1.[Pt+2] [Carboplatin],mean,[4],2.889
same,Replicate_1,"sheet LOPAC_screen_w_protease, primary screen with protease, compound at 5 µM, replicate 1",1.772
same,Replicate_2,[5],4.006
COC(=O)Nc1nc2ccc(C(=O)c3cccs3)cc2[nH]1 [Nocodazole],inhibition at 5 µM,[6],4.68%
same,inhibition at 5 µM,[7],2.87%
same,inhibition at 5 µM,[8],6.49%
c1ccc(C2CC2)c(OCC2=NCCN2)c1 [Cirazoline hydrochloride],inhibition at 5 µM,[1],2.66%
same,inhibition at 5 µM,[2],1%
same,mean (LOPAC_screen_w_protease),[3],1.832
COc1cc(Cc2cnc(N)nc2N)cc(OC)c1OC [Trimethoprim],inhibition at 5 µM,read-out: Replicate_1,-0.343%
same,inhibition at 5 µM,read-out: Replicate_2,-3.24%
same,inhibition at 5 µM,read-out: mean,-1.79%
Cc1ncc(CNC(=O)N(CCCl)N=O)c(N)n1 [Nimustine hydrochloride],inhibition at 5 µM,[9],3.43%
same,inhibition at 5 µM,[10],3.89%
same,inhibition at 5 µM,[11],2.97%
COc1ccc2c(c1)c(CC(=O)O)c(C)n2C(=O)c1ccccc1,mean,[12],2.541
same,Replicate_1,[13],2.008
same,Replicate_2,[14],3.073
COc1ccccc1N1CCN(CCN(C(=O)c2ccc(F)cc2)c2ccccn2)CC1.Cl.Cl [p-MPPF dihydrochloride],mean (LOPAC screen with protease),[15],7.242
same,Replicate_1 (LOPAC screen with protease),[16],5.881
same,Replicate_2 (LOPAC screen with protease),[17],8.603
Cn1ccnc1 [1-Methylimidazole],inhibition at 5 µM,[6],4.84%
same,inhibition at 5 µM,[7],4.68%
same,inhibition at 5 µM,[8],4.99%
O=c1[nH]c2ccccc2n1CCCN1CCN(C(c2ccccc2)c2ccccc2)CC1 [Oxatomide],inhibition at 5 µM,[6],5.24%
same,inhibition at 5 µM,[7],4.62%
same,inhibition at 5 µM,[8],5.86%
CC1=C(/C=C/C(C)=C/C=C/C(C)=C/C=C/C=C(C)/C=C/C=C(C)/C=C/C2=C(C)C(=O)[C@@H](O)CC2(C)C)C(C)(C)C[C@H](O)C1=O [Astaxanthin],inhibition at 5 µM,[9],3.4%
same,inhibition at 5 µM,[10],2.58%
same,inhibition at 5 µM,[11],4.22%
O=c1ccn([C@@H]2O[C@H](COP(=O)([O-])OP(=O)([O-])O)[C@@H](O)[C@H]2O)c(=O)[nH]1.[Na+].[Na+] [Uridine 5'-diphosphate sodium],mean,"sheet LOPAC_screen_w_protease, primary screen with protease, 5 µM, mean of two replicates",-0.3913
same,Replicate_1,"sheet LOPAC_screen_w_protease, primary screen with protease, 5 µM, replicate 1",-1.155
same,Replicate_2,"sheet LOPAC_screen_w_protease, primary screen with protease, 5 µM, replicate 2",0.3722
CN1C(C(=O)Nc2ccccn2)=C(O)c2ccccc2S1(=O)=O [Piroxicam],inhibition at 5 µM,"sheet LOPAC_screen_w_protease, primary screen with protease, compound at 5 µM, mean of two replicates, read-out: mean",3.01%
same,inhibition at 5 µM,"sheet LOPAC_screen_w_protease, primary screen with protease, compound at 5 µM, replicate 1, read-out: Replicate_1",1.9%
same,inhibition at 5 µM,"sheet LOPAC_screen_w_protease, primary screen with protease, compound at 5 µM, replicate 2, read-out: Replicate_2",4.12%
Cn1c(=O)c2c(nc(C=Cc3cccc(Cl)c3)n2C)n(C)c1=O [8-(3-Chlorostyryl)caffeine],mean,"sheet LOPAC_screen_w_protease, LOPAC1280 primary screen at 5 µM, with protease, mean of the two replicates",0.7326
same,Replicate_1,[18],1.9699
same,Replicate_2,[19],-0.5047
CCOC(=O)C1=C[C@]2(CC)CCCN3CCc4c(n1c1ccccc41)[C@@H]32 [Vinpocetine],inhibition at 5 µM,"sheet LOPAC_screen_w_protease, LOPAC1280 at 5 µM, mean of two replicates, read-out: mean",0.949%
same,inhibition at 5 µM,"sheet LOPAC_screen_w_protease, LOPAC1280 at 5 µM, replicate 1, read-out: Replicate_1",0.618%
same,inhibition at 5 µM,"sheet LOPAC_screen_w_protease, LOPAC1280 at 5 µM, replicate 2, read-out: Replicate_2",1.28%
Cc1nc2sccn2c(=O)c1CCN1CCC(=C(c2ccc(F)cc2)c2ccc(F)cc2)CC1 [Ritanserin],inhibition at 5 µM,[1],2.24%
same,inhibition at 5 µM,[2],0.502%
same,mean (LOPAC_screen_w_protease),[20],1.373
CN(C)C(=O)Oc1ccc[n+](C)c1 [Pyridostigmine bromide],inhibition at 5 µM,"sheet LOPAC_screen_w_protease, primary screen with protease, 5 µM, mean of two replicates, read-out: mean",0.333%
same,inhibition at 5 µM,[21],1.4%
same,inhibition at 5 µM,[22],-0.737%
Nc1ccc(CCN2CCN(c3cccc(C(F)(F)F)c3)CC2)cc1 [PAPP],mean,"sheet LOPAC_screen_w_protease, LOPAC1280 primary screen at 5 µM, with protease, mean of two replicates",-1.528
same,Replicate_1,[18],-1.095
same,Replicate_2,[19],-1.96
Cc1c2ccncc2c(C)c2c1[nH]c1ccccc12 [Ellipticine],inhibition at 5 µM,"sheet LOPAC_screen_w_protease, primary screen with protease, mean of two replicates, read-out: mean",2.32%
same,inhibition at 5 µM,"sheet LOPAC_screen_w_protease, primary screen with protease, replicate 1, read-out: Replicate_1",4.78%
same,inhibition at 5 µM,"sheet LOPAC_screen_w_protease, primary screen with protease, replicate 2, read-out: Replicate_2",-0.147%
C[C@]12CC[C@@H](O)C[C@@H]1CC[C@@H]1[C@@H]2CC[C@]2(C)C(=O)CC[C@@H]12 [Androsterone],inhibition at 5 µM,read-out: Replicate_1,1.73%
same,inhibition at 5 µM,read-out: Replicate_2,3.02%
same,inhibition at 5 µM,read-out: mean,2.38%
CC(=O)Nc1nnc(S(N)(=O)=O)s1 [Acetazolamide],inhibition at 5 µM,[21],0.216%
same,inhibition at 5 µM,[22],-0.714%
COc1nc(C)nc(Cl)c1NC1=NCCN1.Cl [Moxonidine hydrochloride],mean,"sheet LOPAC_screen_w_protease, primary screen of LOPAC1280 at 5 µM with protease, mean of the two replicates",3.905
same,Replicate_1,"sheet LOPAC_screen_w_protease, primary screen of LOPAC1280 at 5 µM with protease, replicate 1",2.314
same,Replicate_2,"sheet LOPAC_screen_w_protease, primary screen of LOPAC1280 at 5 µM with protease, replicate 2",5.497
C[N+]1(C)[C@@H]2CC[C@H]1C[C@@H](OC(=O)C(CO)c1ccccc1)C2 (stereo partly drawn) [Atropine methyl bromide],inhibition at 5 µM,[1],2.3%
same,inhibition at 5 µM,[2],1.25%
same,mean (LOPAC_screen_w_protease),[3],1.779
CN1CCN(CC(=O)N2c3ccccc3C(=O)Nc3cccnc32)CC1 [Pirenzepine dihydrochloride],inhibition at 5 µM,[1],2.98%
same,inhibition at 5 µM,[2],0.888%
same,mean (LOPAC_screen_w_protease),[3],1.931
C[C@@]1(C2CCCC2)Cc2cc(OCC(=O)O)c(Cl)c(Cl)c2C1=O [R(+)-IAA-94],mean,[4],3.0784
same,Replicate_2,[5],3.637
Nc1ncn([C@@H]2O[C@H](CO)[C@@H](O)[C@H]2O)c(=O)n1 [5-azacytidine],mean (LOPAC screen with protease),[15],9.256
same,Replicate_1 (LOPAC screen with protease),[16],17.5612
same,Replicate_2 (LOPAC screen with protease),[17],0.9518
Oc1ccc(C2CNCCc3c2cc(O)c(O)c3Cl)cc1 (stereo not drawn) [Fenoldopam bromide],inhibition at 5 µM,read-out: Replicate_1 (LOPAC screen with protease),29.5%
same,inhibition at 5 µM,read-out: Replicate_2 (LOPAC screen with protease),23%
same,inhibition at 5 µM,read-out: mean (LOPAC screen with protease),26.2%
"O=S1(=O)N(CCN2CC=C(c3c[nH]c4cc(F)ccc34)CC2)c2cccc3c2N1CCC3 [LY-367,265]",mean,[12],2.318
same,Replicate_1,[13],0.8121
same,Replicate_2,[14],3.823
CNC(=C[N+](=O)[O-])NCCSCc1ccc(CN(C)C)o1 [Ranitidine hydrochloride],inhibition at 5 µM,read-out: Replicate_1 (LOPAC_screen_w_protease),2.07%
same,inhibition at 5 µM,read-out: Replicate_2 (LOPAC_screen_w_protease),1.3%
O=S(=O)(O)C1CCNCC1 [Piperidine-4-sulphonic acid],mean,"sheet LOPAC_screen_w_protease, LOPAC1280 primary screen with protease, 5 µM compound, mean of the two replicates",4.585
same,Replicate_1,"sheet LOPAC_screen_w_protease, LOPAC1280 primary screen with protease, 5 µM compound, replicate 1",5.428
same,Replicate_2,"sheet LOPAC_screen_w_protease, LOPAC1280 primary screen with protease, 5 µM compound, replicate 2",3.743
CCCN(CCC)[C@@H]1CCc2c(F)ccc(O)c2C1.Cl [R(+)-UH-301 hydrochloride],mean (LOPAC_screen_w_protease),[20],1.335
same,Replicate_1 (LOPAC_screen_w_protease),"LOPAC1280 primary screen with protease, 5 µM compound, replicate 1",1.567
same,Replicate_2 (LOPAC_screen_w_protease),"LOPAC1280 primary screen with protease, 5 µM compound, replicate 2",1.103
COc1ccccc1N1CCN(CCN(C(=O)C2CCCCC2)c2ccccn2)CC1.O=C(O)/C=C\C(=O)O [WAY-100635 maleate],mean,"sheet LOPAC_screen_w_protease, LOPAC1280 at 5 µM, mean of two replicates",1.0596
same,Replicate_1,"sheet LOPAC_screen_w_protease, LOPAC1280 at 5 µM, replicate 1",1.502
same,Replicate_2,"sheet LOPAC_screen_w_protease, LOPAC1280 at 5 µM, replicate 2",0.6169
"CC(=O)C(C)=O [2,3-Butanedione]",inhibition at 5 µM,"sheet LOPAC_screen_w_protease, LOPAC1280 primary screen at 5 µM, with protease, mean of the two replicates, read-out: mean",0.702%
same,inhibition at 5 µM,"sheet LOPAC_screen_w_protease, LOPAC1280 primary screen at 5 µM, with protease, replicate 1, read-out: Replicate_1",1.88%
same,inhibition at 5 µM,"sheet LOPAC_screen_w_protease, LOPAC1280 primary screen at 5 µM, with protease, replicate 2, read-out: Replicate_2",-0.473%
